From US7442683B2, “Cyclic peptide” (Takara Bio Inc., priority 2001, dated 2008) come the findings set out here.

Where two headings read alike, the source gives them in different places.

Type in all cases: cell-based
The subject of test [1] is Aspergillus fumigatus TIMM1776. As to the method:
(§1) The antifungal activities of the compounds synthesized in Examples 1 and 3 to 7 were measured by a liquid medium dilution method. Candida albicans TIMM0136, Cryptococcus neoformans TIMM0354 or Aspergillus fumigatus TIMM1776 was inoculated into a medium containing one of the compounds diluted serially, and cultured at 30° C. for two days. […] For the measurements, a medium containing 0.67% Yeast Nitrogen Base (Difco) and 1.0% glucose (YNBG medium) was used for the cultures of Candida albicans and Cryptococcus neoformans, and a medium containing 0.5% Brain Heart Infusion Bouillon (Nissui) (BHI medium) was used for the culture of Aspergillus fumigatus.

Test [2] has as its system Candida albicans TIMM0136. As to the method:
as §1

Test [3] has as its system Cryptococcus neoformans TIMM0354. As to the method: as §1

Turning to `CCCCCCCCCCCCCC1CC(=O)N[C@@H](C)C(=O)N[C@@H](CCCN)C(=O)NCCC(=O)N[C@@H](CO)C(=O)N[C@@H](CO)C(=O)N[C@H](CC(N)=O)C(=O)N[C@H]([C@@H](C)O)C(=O)NCC(=O)O1` (mixture of isomers) [Compound 1, cyclo(-L-Ala-L-Orn-β-Ala-L-Ser-L-Ser-D-Asn-D-allo-Thr-Gly-(±) -Hhd-)], in test [1] (Aspergillus fumigatus TIMM1776, BHI medium, 30° C., two days, growth almost completely inhibited), the “MIC (μg/ml) A.f.” value worked out at 1.56 µg/mL.

For the compound `CCCCCCCCCCCCCC1CC(=O)N[C@@H](C)C(=O)N[C@@H](CCCN)C(=O)N[C@@H](CC(N)=O)C(=O)N[C@@H](CO)C(=O)N[C@@H](CO)C(=O)N[C@H](CC(N)=O)C(=O)N[C@H]([C@@H](C)O)C(=O)NCC(=O)O1` (mixture of isomers) [Compound 3, cyclo(-L-Ala-L-Orn-L-Asn-L-Ser-L-Ser-D-Asn-D-allo-Thr-Gly-(±)-Hhd-)], in test [2], the “MIC (μg/ml) C.a.” value came to 6.25 µg/mL. In addition, the “MIC (μg/ml) C.n.” value in test [3] is 3.12 µg/mL. Moreover, the “MIC (μg/ml) A.f.” value in test [1] (TIMM1776) is 1.56 µg/mL.

With `CCCCCCCCCCCCCC1CC(=O)N[C@@H](C)C(=O)N[C@@H](CCCN)C(=O)N[C@@H](CC(=O)O)C(=O)N[C@@H](CO)C(=O)N[C@@H](CO)C(=O)N[C@H](CC(N)=O)C(=O)N[C@H]([C@@H](C)O)C(=O)NCC(=O)O1` (mixture of isomers) [Compound 4, cyclo(-L-Ala-L-Orn-L-Asp-L-Ser-L-Ser-D-Asn-D-allo-Thr-Gly-(±)-Hhd-)], the “MIC (μg/ml) C.a.” value in test [2] amounted to 6.25 µg/mL. Further, the “MIC (μg/ml) C.n.” value in test [3] was determined as 6.25 µg/mL.

As for `CCCCCCCCCCCCCC1CC(=O)N[C@@H](C)C(=O)N[C@@H](CCCN)C(=O)N[C@@H](CCC(=O)O)C(=O)N[C@@H](CO)C(=O)N[C@@H](CO)C(=O)N[C@H](CC(N)=O)C(=O)N[C@H]([C@@H](C)O)C(=O)NCC(=O)O1` (mixture of isomers) [Compound 5, cyclo(-L-Ala-L-Orn-L-Glu-L-Ser-L-Ser-D-Asn-D-allo-Thr-Gly-(±)-Hhd-)], the “MIC (μg/ml) C.a.” value in test [2] was 3.12 µg/mL. In addition, the “MIC (μg/ml) C.n.” value in test [3] worked out at 6.25 µg/mL. Besides, the “MIC (μg/ml) A.f.” value in test [1] (TIMM1776) was 0.39 µg/mL.

As for `CCCCCCCCCCCCCC1CC(=O)N[C@@H](C)C(=O)N[C@@H](CCCN)C(=O)NCC(=O)N[C@@H](CO)C(=O)N[C@@H](CO)C(=O)N[C@H](CC(N)=O)C(=O)N[C@H]([C@@H](C)O)C(=O)NCC(=O)O1` (mixture of isomers) [Compound 6, cyclo(-L-Ala-L-Orn-Gly-L-Ser-L-Ser-D-Asn-D-allo-Thr-Gly-(±)-Hhd-)], the “MIC (μg/ml) C.a.” value in test [2] turned out to be 12.5 µg/mL. In addition, the “MIC (μg/ml) C.n.” value in test [3] came to 3.12 µg/mL.

In the case of `CCCCCCCCCCCCCC1CC(=O)N[C@@H](C)C(=O)N[C@@H](CCCN)C(=O)N[C@@H](CO)C(=O)N[C@@H](CO)C(=O)N[C@@H](CO)C(=O)N[C@H](CC(N)=O)C(=O)N[C@H]([C@@H](C)O)C(=O)NCC(=O)O1` (mixture of isomers) [Compound 7, cyclo(-L-Ala-L-Orn-L-Ser-L-Ser-L-Ser-D-Asn-D-allo-Thr-Gly-(±)-Hhd-)], the “MIC (μg/ml) C.a.” value in test [2] worked out at 6.25 µg/mL. Besides, the “MIC (μg/ml) C.n.” value in test [3] was 3.12 µg/mL. In test [1] (TIMM1776), the “MIC (μg/ml) A.f.” value worked out at 0.78 µg/mL.

As to `CCCCCCCCCCCCCC1CC(=O)N[C@@H](C)C(=O)N[C@@H](CCCN)C(=O)NCCC(=O)N[C@@H](CO)C(=O)N[C@@H](CO)C(=O)N[C@H](CC(N)=O)C(=O)N[C@H]([C@H](C)O)C(=O)NCC(=O)O1` (stereo partly drawn) [AA^7:D-Thr-substituted analog], the “MIC (μg/ml) C.a.” value in test [2] is greater than 200 µg/mL. Besides, the “MIC (μg/ml) C.n.” value in test [3] was greater than 200 µg/mL. Further, in test [1] (TIMM1776), the “MIC (μg/ml) A.f.” value was greater than 200 µg/mL.

In the case of `CCCCCCCCCCCCCC1CC(=O)N[C@@H](C)C(=O)N[C@@H](CCCN)C(=O)NCCC(=O)N[C@@H](CO)C(=O)N[C@@H](CO)C(=O)N[C@H](CC(N)=O)C(=O)N[C@@H]([C@@H](C)O)C(=O)NCC(=O)O1` (stereo partly drawn) [AA^7:L-Thr-substituted analog], the “MIC (μg/ml) C.a.” value in test [2] was greater than 200 µg/mL. Also, in test [3], the “MIC (μg/ml) C.n.” value is greater than 200 µg/mL. Moreover, the “MIC (μg/ml) A.f.” value in test [1] (TIMM1776) is greater than 200 µg/mL.
